Data as given in PubChem BioAssay AID330 (DTP/NCI, 2004).
“And” between values parts separate entries of the source, which are not always exact repeats. Equal values may be shown once. Inconclusive results and toxic doses are left out.

Test system: P388 leukemia ip, CD2F1 mice, survival T/C
Experiment: NCI In Vivo Anticancer Drug Screen. Data for tumor model P388 Leukemia (intraperitoneal) in CD2F1 (CDF1) mice
Settings: endpoint: median survival time, higher = longer survival
Method in brief: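 Mice carrying the transplanted tumor received test compound or vehicle. Survival was recorded in each group, and the value is the treated-group measurement divided by that of the vehicle-treated control group.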

[1] = dose: 25.0 mg/kg/injection, schedule: Q01DX009 (ip), vehicle: saline
[2] = dose: 50.0 mg/kg/injection, schedule: Q01DX009 (ip), vehicle: saline
[3] = dose: 100.0 mg/kg/injection, schedule: Q01DX009 (ip), vehicle: saline
[4] = dose: 100.0 mg/kg/injection, schedule: Q04DX003 (ip), vehicle: saline
[5] = dose: 12.5 mg/kg/injection, schedule: Q01DX009 (ip), vehicle: saline with Tween-80
[6] = dose: 50.0 mg/kg/injection, schedule: Q01DX009 (ip), vehicle: saline with Tween-80
[7] = dose: 100.0 mg/kg/injection, schedule: Q04DX003 (ip), vehicle: saline with Tween-80
[8] = dose: 200.0 mg/kg/injection, schedule: Q04DX003 (ip), vehicle: saline with Tween-80
[9] = dose: 60.0 mg/kg/injection, schedule: Q01DX005 (ip), vehicle: saline with Tween-80
[10] = dose: 120.0 mg/kg/injection, schedule: Q01DX005 (ip), vehicle: saline with Tween-80
[11] = dose: 240.0 mg/kg/injection, schedule: Q01DX005 (ip), vehicle: saline with Tween-80
[12] = dose: 50.0 mg/kg/injection, schedule: Q01DX005 (ip), vehicle: Klucel (hydroxypropylcellulose) (HPC)
[13] = dose: 100.0 mg/kg/injection, schedule: Q01DX005 (ip), vehicle: Klucel (hydroxypropylcellulose) (HPC)
[14] = dose: 200.0 mg/kg/injection, schedule: Q01DX005 (ip), vehicle: Klucel (hydroxypropylcellulose) (HPC)
[15] = dose: 200.0 mg/kg/injection, schedule: Q01DX009 (ip), vehicle: saline
[16] = dose: 60.0 mg/kg/injection, schedule: Q01DX005 (ip), vehicle: Klucel (hydroxypropylcellulose) (HPC)
[17] = dose: 120.0 mg/kg/injection, schedule: Q01DX005 (ip), vehicle: Klucel (hydroxypropylcellulose) (HPC)

## CNS(=O)(=O)O
dose: 12.5 mg/kg/injection, schedule: Q01DX009 (ip), vehicle: saline
  T/C: 86 % of control
[1]
  T/C: 104 % of control
[2]
  T/C: 105 % of control
[3]
  T/C: 100 % of control

## Cn1c(=O)c2c(nc(/N=C/c3ccncc3)n2C)n(C)c1=O
[4]
  T/C: 101 % of control
dose: 200.0 mg/kg/injection, schedule: Q04DX003 (ip), vehicle: saline
  T/C: 101 % of control
dose: 400.0 mg/kg/injection, schedule: Q04DX003 (ip), vehicle: saline
  T/C: 101 % of control

## CCc1c(CC(=O)O)c2cc(C)ccc2n1Cc1ccc(Cl)cc1
[5]
  T/C: 95 % of control
dose: 25.0 mg/kg/injection, schedule: Q01DX009 (ip), vehicle: saline with Tween-80
  T/C: 104 % of control
dose: 25.0 mg/kg/injection, schedule: Q04DX003 (ip), vehicle: saline with Tween-80
  T/C: 104 % of control and 95 % of control and 91 % of control
[6]
  T/C: 109 % of control
dose: 50.0 mg/kg/injection, schedule: Q04DX003 (ip), vehicle: saline with Tween-80
  T/C: 108 % of control and 91 % of control
[7]
  T/C: 90 % of control and 108 % of control and 92 % of control
[4]
  T/C: 96 % of control
[8]
  T/C: 90 % of control

## NC(CCCCC(N)C(=O)c1ccccc1)C(=O)c1ccccc1 (stereo unspecified)
[9]
  T/C: 98 % of control
[10]
  T/C: 93 % of control
[11]
  T/C: 94 % of control

## CCOCC(=O)N[C@H]1CCc2cc(OC)c(OC)c(OC)c2-c2ccc(SC)c(=O)cc21
dose: 0.75 mg/kg/injection, schedule: Q01DX009 (ip), vehicle: Klucel (hydroxypropylcellulose) (HPC)
  T/C: 158 % of control and 161 % of control
dose: 1.5 mg/kg/injection, schedule: Q01DX009 (ip), vehicle: Klucel (hydroxypropylcellulose) (HPC)
  T/C: 193 % of control and 229 % of control

## [CH3][Sn]([CH3])([O]C(=O)c1ccc2c(c1)OCO2)[O]C(=O)c1ccc2c(c1)OCO2
[12]
  T/C: 112 % of control
[13]
  T/C: 112 % of control
[14]
  T/C: 109 % of control

## O=C1CCSC(=S)N1c1ccc(Cl)c(C(F)(F)F)c1
[1]
  T/C: 101 % of control and 91 % of control
[2]
  T/C: 100 % of control and 106 % of control and 107 % of control
[3]
  T/C: 110 % of control and 118 % of control and 98 % of control
[15]
  T/C: 100 % of control and 119 % of control

## CCOC(=O)CC1(O)CCC2C3CC=C4CC(OC5CCCCO5)CCC4(C)C3CCC21C (stereo unspecified)
dose: 3.0 mg/kg/injection, schedule: Q01DX009 (ip), vehicle: saline with Tween-80
  T/C: 101 % of control
dose: 6.0 mg/kg/injection, schedule: Q01DX009 (ip), vehicle: saline with Tween-80
  T/C: 99 % of control
dose: 12.0 mg/kg/injection, schedule: Q01DX009 (ip), vehicle: saline with Tween-80
  T/C: 100 % of control
[5]
  T/C: 88 % of control

## CCOC(=O)C1=NN(c2ccccc2)CC1C(=O)OC (stereo unspecified)
dose: 50.0 mg/kg/injection, schedule: Q04DX002 (ip), vehicle: suspension in saline
  T/C: 103 % of control
dose: 100.0 mg/kg/injection, schedule: Q04DX002 (ip), vehicle: suspension in saline
  T/C: 100 % of control
dose: 200.0 mg/kg/injection, schedule: Q04DX002 (ip), vehicle: suspension in saline
  T/C: 98 % of control

## C/C=C(/C)C(=O)O[C@@H]1c2c(C)coc2C(=O)[C@@]2(OC(C)=O)CCC[C@@](C)(O)[C@@]12C
dose: 3.25 mg/kg/injection, schedule: Q01DX005 (ip), vehicle: saline + alcohol
  T/C: 110 % of control
dose: 6.5 mg/kg/injection, schedule: Q01DX005 (ip), vehicle: saline + alcohol
  T/C: 96 % of control
dose: 13.0 mg/kg/injection, schedule: Q01DX005 (ip), vehicle: saline + alcohol
  T/C: 91 % of control
dose: 26.0 mg/kg/injection, schedule: Q01DX005 (ip), vehicle: saline + alcohol
  T/C: 93 % of control

## COC(=O)C1(CC(=O)c2ccc3ccccc3c2)NC(=S)NC(=O)C1C#N (stereo unspecified)
[9]
  T/C: 95 % of control
[10]
  T/C: 95 % of control
[11]
  T/C: 91 % of control

## O=C1NCCCC1(Cl)Cl
dose: 12.5 mg/kg/injection, schedule: Q01DX009 (ip), vehicle: Klucel (hydroxypropylcellulose) (HPC)
  T/C: 100 % of control
dose: 25.0 mg/kg/injection, schedule: Q01DX009 (ip), vehicle: Klucel (hydroxypropylcellulose) (HPC)
  T/C: 104 % of control
dose: 50.0 mg/kg/injection, schedule: Q01DX009 (ip), vehicle: Klucel (hydroxypropylcellulose) (HPC)
  T/C: 94 % of control

## [Cl][Pd][Cl].[NH-]C(CO)C(=O)O (stereo unspecified)
dose: 12.5 mg/kg/injection, schedule: Q01DX005 (ip), vehicle: saline
  T/C: 94 % of control
dose: 25.0 mg/kg/injection, schedule: Q01DX005 (ip), vehicle: saline
  T/C: 102 % of control
dose: 50.0 mg/kg/injection, schedule: Q01DX005 (ip), vehicle: saline
  T/C: 106 % of control and 98 % of control

## CCCC(NC(=O)C(C)NC(=O)OCc1ccccc1)C(=O)O (stereo unspecified)
[12]
  T/C: 98 % of control
[13]
  T/C: 96 % of control
[14]
  T/C: 96 % of control

## COc1cc(C=NC2CCCCC2)cc(OC)c1OC
dose: 100.0 mg/kg/injection, schedule: Q01DX001 (ip), vehicle: saline
  T/C: 104 % of control
dose: 200.0 mg/kg/injection, schedule: Q01DX001 (ip), vehicle: saline
  T/C: 101 % of control
dose: 400.0 mg/kg/injection, schedule: Q01DX001 (ip), vehicle: saline
  T/C: 99 % of control

## COc1cccc2c1C(=O)c1c(O)c3c(c(O)c1C2=O)CC(O)(C(C)NCCCO)CC3OC1CC(N)C(O)C(C)O1 (stereo unspecified)
dose: 1.5 mg/kg/injection, schedule: Q01DX009 (ip), vehicle: water
  T/C: 111 % of control
dose: 24.0 mg/kg/injection, schedule: Q01DX009 (ip), vehicle: water
  T/C: 168 % of control and 172 % of control
dose: 48.0 mg/kg/injection, schedule: Q01DX009 (ip), vehicle: water
  T/C: 173 % of control

## Cc1ccc(O)c(O)c1
[1]
  T/C: 101 % of control

## CC(C)Cc1cc(-c2cc(CC(C)C)on2)no1
dose: 60.0 mg/kg/injection, schedule: Q01DX005 (ip), vehicle: saline
  T/C: 100 % of control
dose: 120.0 mg/kg/injection, schedule: Q01DX005 (ip), vehicle: saline
  T/C: 104 % of control
dose: 240.0 mg/kg/injection, schedule: Q01DX005 (ip), vehicle: saline
  T/C: 100 % of control

## Nc1[nH]c(=S)[nH]c(=S)c1N
dose: 100.0 mg/kg/injection, schedule: Q04DX002 (ip), vehicle: saline with Tween-80
  T/C: 102 % of control
dose: 200.0 mg/kg/injection, schedule: Q04DX002 (ip), vehicle: saline with Tween-80
  T/C: 98 % of control
dose: 400.0 mg/kg/injection, schedule: Q04DX002 (ip), vehicle: saline with Tween-80
  T/C: 94 % of control

## COc1cc(C2C3=C(CC(C)(C)CC3=O)N(CC(=O)O)C3=C2C(=O)CC(C)(C)C3)ccc1O
[2]
  T/C: 95 % of control
[3]
  T/C: 102 % of control
[15]
  T/C: 113 % of control

## O=c1oc2c(ccc3nc(-c4ccccc4)sc32)c(N2CCOCC2)c1Cl
[12]
  T/C: 92 % of control
[13]
  T/C: 91 % of control
[14]
  T/C: 89 % of control

## O=C1Nc2ccccc2NC(=O)C(=C(c2ccccc2)c2ccccc2)C1=C(c1ccccc1)c1ccccc1
[9]
  T/C: 90 % of control
[10]
  T/C: 89 % of control
[11]
  T/C: 89 % of control

## CC1(C)CC(OC(=O)c2c3ccccc3c3ccc4cccc5ccc2c3c54)CC(C)(C)N1O
[6]
  T/C: 91 % of control
dose: 100.0 mg/kg/injection, schedule: Q01DX009 (ip), vehicle: saline with Tween-80
  T/C: 91 % of control
dose: 200.0 mg/kg/injection, schedule: Q01DX009 (ip), vehicle: saline with Tween-80
  T/C: 90 % of control

## COc1nnnc2c1sc1ccccc12
dose: 100.0 mg/kg/injection, schedule: Q01DX001 (ip), vehicle: saline with Tween-80
  T/C: 101 % of control
dose: 200.0 mg/kg/injection, schedule: Q01DX001 (ip), vehicle: saline with Tween-80
  T/C: 104 % of control
dose: 400.0 mg/kg/injection, schedule: Q01DX001 (ip), vehicle: saline with Tween-80
  T/C: 102 % of control

## N=c1nccnn1O
[7]
  T/C: 100 % of control
[8]
  T/C: 99 % of control
dose: 400.0 mg/kg/injection, schedule: Q04DX003 (ip), vehicle: saline with Tween-80
  T/C: 100 % of control

## COC1(NS(=O)(=O)c2ccc(C)cc2)CC1
[16]
  T/C: 103 % of control
[17]
  T/C: 91 % of control

## CCOc1cc2c(cc1Cc1cc(OC)c(OC)c(OC)c1)OCO2
[16]
  T/C: 91 % of control
[17]
  T/C: 98 % of control
dose: 240.0 mg/kg/injection, schedule: Q01DX005 (ip), vehicle: Klucel (hydroxypropylcellulose) (HPC)
  T/C: 86 % of control
